Laboratory results as given in patent US20100003217A1, “Compounds and Pharmaceutical Compositions for the Treatment of Viral Infections” (priority 2008, published 2010).
Several values for one entry are separate records, joined by “and”; a condition that tells them apart may be missing. Equal entries are not always repeated.

How the values were obtained:
[1] = Incubation with monkey liver cytosol; assay type: in vitro ADME; conditions: monkey cytosol 1 mg/mL, 2 hours, 10 μM
Protocol: (§1) Pooled liver cytosol (1.0 mg protein/mL) suspended in incubation buffer (0.1 M potassium phosphate, pH 7.4) was incubated for 2 hours at 37° C. with 10 μM Compound 1 from a stock solution in DMSO (final DMSO concentration was 0.1%); reaction was initiated with the addition of test article. Incubations with no protein served as control. Reactions were terminated by the addition of 0.1 mL of stop solution (acetonitrile). The samples were vortex-mixed for 30 sec and then centrifuged at 10,000×g for 10 min. The supernatant was dried using a Labconco CentriVap concentrator and the dry residue reconstituted in water, transferred to an HPLC glass vial and analyzed by HPLC-UV method 2 (described above).
(§2) Metabolic stability of the proposed metabolites was conducted by incubating the chemically synthesized standards Compound 2, Compound 4 and Compound 3 as described above for Compound 1. When possible, formation of Compound 5 was verified by incubating samples with alkaline phosphatase (10 U) for 60 min at 37° C.

[2] = Incubation with human liver cytosol; assay type: in vitro ADME; conditions: human cytosol 1 mg/mL, 2 hours, 10 μM
Protocol: as §1, §2

[3] = Stability in rat liver microsomes; assay type: in vitro ADME; conditions: for NADPH-dependent metabolism: rat liver microsomes; for % Residual compound following incubation with liver microsomes: rat microsomes 1 mg/mL; for % Residual Compound 1: rat liver microsomes 1 mg/mL
Protocol: Disappearance of parent Compound 1 was used to evaluate the in vitro metabolism thereof. Relative levels of unchanged Compound 1 were measured by HPLC-UV method 1. Residual Compound 1 is reported as percent difference from time zero or control. The HPLC-UV system was as follows:
Incubations with liver microsomes or cytosol were conducted in a final volume of 0.1 mL per incubation time point. […] DMSO (final DMSO concentration was 0.1%) was incubated at 37° C. from 0-60 min with pooled microsomal protein (1.0 mg/mL), suspended in incubation buffer (0.1 M potassium phosphate, pH 7.4, 5 mM MgCl2, and 0.1 mM EDTA). The microsomal reaction was initiated by the addition of NADPH (3 mM final concentration). Incubations with (a) no protein or (b) no NADPH served as controls. Reactions were terminated by the addition of 0.2 mL of stop solution (acetonitrile). The samples were vortex-mixed for 30 sec and then centrifuged at 10,000×g for 10 min. The supernatant was dried using a Labconco CentriVap concentrator and the dry residue reconstituted in water, transferred to an HPLC glass vial and analyzed by HPLC-UV method 1 (described above).
as §2

[4] = Metabolite profile in rat urine; assay type: in vivo, male Sprague-Dawley rats; conditions: for Percent of Dose, Urine 0-24 h: after [14C]Compound 1; for % AD, estimated: from single animal HPLC distribution and mean % AD; for Total % AD, estimated / Total % AD: total of all collections; for % of total urinary excretion / Total % AD: group 1C (IV dose) urine; for urinary component, % of the administered dose (% AD) / urinary component, estimated % of the administered dose (% AD): 0-24 h; for urinary component, % of the administered dose (% AD): 50 mg/kg
Protocol: Pooled urine samples were prepared for Groups 1C and 2C by mixing a fixed percent of the total volume for all four animals from the selected time points. For Group 1C, samples of the 1-, 2-, 6-, and 24-h collection intervals were pooled. For Group 2C, a pool of samples from all four animals was prepared for the 24 h collection intervals only. For 1-, 2-, and 6 h collection intervals, a urine sample of a single animal of Group 2A or 2B was used for analysis. All samples were brought to room temperature and vortexed briefly. The samples were diluted as necessary (2- to 20-fold) with appropriate aqueous mobile phase for the selected HPLC method. The pooled and diluted samples from the 24 h collection interval were centrifuged at 2040×g for 10 minutes. All other samples were analyzed without centrifugation. HPLC method 1 was used for HPLC profiling. Selected samples were analyzed by HPLC method 2 for comparison with the metabolite profile generated by microsomal and hepatocyte incubations (Examples 14 and 15) and with the metabolite profile of liver extracts.
Percent of the administered dose (% AD) for parent drug and each metabolite at each collection period=(% of the total radioactivity in the sample attributed to the metabolite)*(total radioactivity expressed as % of the administered dose, recovered during the corresponding collection period).
HPLC analyses of pooled urine samples of all time points were conducted for Group 1C. Metabolites R1, R2, R3, R4, R5, R6, R7 and R8 were characterized based on retention time.
For the PO dose group, a pooled urine sample from the 24-h collection time was analyzed. For 1-, 2-, and 6-h collection times, the majority of the samples had been used for radioanalysis. The remaining samples were insufficient for proportional pooling. Therefore, single animal samples of […] groups were used for HPLC profiling. Metabolites R^1, R^2, R^3, R^4, R^5, R^6, R^7 and R^8 were characterized based on retention time.
Table 50 contains data from single animal samples and pooled samples. To estimate overall distribution of urinary metabolites, it was assumed that the profile from a single animal is reflective of the overall average metabolite profile. Therefore, HPLC distribution data from single animals was used to calculate the percentage of administered dose excreted as various metabolites during the 1-, 2-, and 6-h collection intervals. Metabolites R1, R2, R3, R4, R5, R6, R7 and R8 were characterized based on retention time.

[5] = PO dose urine, 1 h collection, single animal (#15, Group 2A)
[6] = PO dose urine, 2 h collection, single animal (#20, Group 2B)
[7] = PO dose urine, 6 h collection, single animal (#20, Group 2B)
[8] = estimated profile table, group 2C (PO dose) urine, 24 h
[9] = estimated profile, group 2C (PO dose) urine
[10] = estimated profile, group 2C (PO dose) urine, 1 h
[11] = estimated profile, group 2C (PO dose) urine, 1 h, single animal % HPLC distribution
[12] = estimated profile, group 2C (PO dose) urine, 2 h
[13] = estimated profile, group 2C (PO dose) urine, 2 h, single animal % HPLC distribution
[14] = group 1C (IV dose) pooled urine, 1 h collection
[15] = group 1C (IV dose) pooled urine, 2 h collection
[16] = group 1C (IV dose) pooled urine, 6 h collection
[17] = group 1C (IV dose) pooled urine, 24 h collection
[18] = group 2C (PO dose) pooled urine, 24 h collection

CC(C)(CO)C(=O)SCCOP(N)(=O)OC[C@H]1O[C@@H](n2cnc3c(=O)[nH]c(N)nc32)[C@](C)(O)[C@@H]1O (mixture of isomers) [Compound 3, {9-[(2R)2-C-methyl-β-D-ribo-furanosyl]-guanin}-5′-yl-O-(hydroxy-tert-butyl-S-acyl-2-thioethyl) phosphoramidate]
Residual compound following incubation with liver cytosol [1]: 99% | Residual compound following incubation with liver cytosol [2]: 100% | NADPH-dependent metabolism ([3]; 60 min, 50 μM): 10% | % Residual compound following incubation with liver microsomes ([3]; 60 min, 50 μM, NADPH): 90% | % Residual compound following incubation with liver microsomes ([3]; 60 min, 50 μM, No Cofactor): 101%

C[C@@]1(O)[C@H](O)[C@@H](CO)O[C@H]1n1cnc2c(=O)[nH]c(N)nc21 [2′-C-methyl guanosine, 9-(2-C-methyl-β-D-ribofuranosyl)guanine, reference compound]
Total excretion (% AD), urine ([4]; IV (1C)): 18.0 % AD | Percent of Dose, Urine 0-24 h ([4]; IV): 18.0% of Dose | Percent of Dose, Urine 0-24 h ([4]; Oral): 2.56% of Dose | Total excretion (% AD), urine ([4]; PO (2C), urine data estimated): 2.56 % AD | % AD (percent of administered dose) [4, 5]: 0.004 % AD | % HPLC (percent of HPLC peak area in the sample extract) [4, 5]: 5.33% | % AD (percent of administered dose) [4, 6]: 0.06 % AD | % HPLC (percent of HPLC peak area in the sample extract) [4, 6]: 56.2% | % AD (percent of administered dose) [4, 7]: 0.24 % AD | % HPLC (percent of HPLC peak area in the sample extract) [4, 7]: 86.18% | % AD [4, 8]: 2.14 % AD | % HPLC (percent of HPLC peak area in the sample extract) [4, 8]: 92.1% | % of total urinary excretion, estimated [4, 9]: 90.4% | % AD, estimated [4, 10]: 0.001 % AD | % HPLC (percent of HPLC peak area in the sample extract) [4, 11]: 5.33% | % AD, estimated [4, 12]: 0.02 % AD | % HPLC (percent of HPLC peak area in the sample extract) [4, 13]: 56.2% | % AD, estimated ([4]; estimated profile, group 2C (PO dose) urine, 6 h): 0.40 % AD | % HPLC (percent of HPLC peak area in the sample extract) ([4]; estimated profile, group 2C (PO dose) urine, 6 h, single animal % HPLC distribution): 86.18% | Total % AD, estimated [4, 9]: 2.56 % AD | % AD (percent of administered dose) [4, 14]: 0.48 % AD | % HPLC (percent of HPLC peak area in the sample extract) [4, 14]: 2.12% | % AD (percent of administered dose) [4, 15]: 1.79 % AD | % HPLC (percent of HPLC peak area in the sample extract) [4, 15]: 35.1% | % AD (percent of administered dose) [4, 16]: 1.35 % AD | % HPLC (percent of HPLC peak area in the sample extract) [4, 16]: 57.7% | % AD (percent of administered dose) [4, 17]: 14.4 % AD | % HPLC (percent of HPLC peak area in the sample extract) [4, 17]: 86.7% | % of total urinary excretion [4]: 38.4% | Total % AD [4]: 18.0 % AD | % AD (percent of administered dose) [4, 18]: 2.14 % AD | % HPLC (percent of HPLC peak area in the sample extract) [4, 18]: 92.1% | % of the total urinary excretion ([4]; rat urine, IV dose 50 mg/kg): 38.4% | urinary component, % of the administered dose (% AD) ([4]; rat urine, IV dose 50 mg/kg): 18 % AD | % of the total urinary excretion ([4]; rat urine, PO dose 100 mg/kg): 90.4% | urinary component, estimated % of the administered dose (% AD) ([4]; rat urine, PO dose 100 mg/kg): 2.6 % AD

CC(C)(CO)C(=O)SCCOP(=O)(NCc1ccccc1)OC[C@H]1O[C@@H](n2cnc3c(=O)[nH]c(N)nc32)[C@](C)(O)[C@@H]1O (mixture of isomers) [Compound 1, 3-hydroxy-2,2-dimethyl-thiopropionic acid S-(2-{[(2R,3R,4R,5R)-5-(2-amino-6-oxo-1,6-dihydro-purin-9-yl)-3,4-dihydroxy-4-methyl-tetrahydro-furan-2-ylmethoxy]-benzylamino-phosphoryloxy}-ethyl) ester]
Residual compound following incubation with liver cytosol [1]: 100% | Residual compound following incubation with liver cytosol [2]: 100% | Total excretion (% AD), urine ([4]; IV (1C)): 26.1 % AD | Percent of Dose, Urine 0-24 h ([4]; IV): 26.1% of Dose | Percent of Dose, Urine 0-24 h ([4]; Oral): 0.02% of Dose | Total excretion (% AD), urine ([4]; PO (2C), urine data estimated): 0.02 % AD | % AD (percent of administered dose) [4, 5]: 0.06 % AD | % HPLC (percent of HPLC peak area in the sample extract) [4, 5]: 74.8% | % AD (percent of administered dose) [4, 6]: 0.01 % AD | % HPLC (percent of HPLC peak area in the sample extract) [4, 6]: 6.57% | % AD [4, 8]: 0.01 % AD | % HPLC (percent of HPLC peak area in the sample extract) [4, 8]: 0.30% | % of total urinary excretion, estimated [4, 9]: 0.73% | % AD, estimated [4, 10]: 0.01 % AD | % HPLC (percent of HPLC peak area in the sample extract) [4, 11]: 74.8% | % AD, estimated [4, 12]: 0.003 % AD | % HPLC (percent of HPLC peak area in the sample extract) [4, 13]: 6.57% | Total % AD, estimated [4, 9]: 0.02 % AD | % AD (percent of administered dose) [4, 14]: 21.39 % AD | % HPLC (percent of HPLC peak area in the sample extract) [4, 14]: 93.5% | % AD (percent of administered dose) [4, 15]: 2.50 % AD | % HPLC (percent of HPLC peak area in the sample extract) [4, 15]: 48.9% | % AD (percent of administered dose) [4, 16]: 0.71 % AD | % HPLC (percent of HPLC peak area in the sample extract) [4, 16]: 30.5% | % AD (percent of administered dose) [4, 17]: 1.51 % AD | % HPLC (percent of HPLC peak area in the sample extract) [4, 17]: 9.09% | % of total urinary excretion [4]: 55.6% | Total % AD [4]: 26.1 % AD | % AD (percent of administered dose) [4, 18]: 0.01 % AD | % HPLC (percent of HPLC peak area in the sample extract) [4, 18]: 0.30% | % of the total urinary excretion ([4]; rat urine, IV dose 50 mg/kg): 55.6% | urinary component, % of the administered dose (% AD) ([4]; rat urine, IV dose 50 mg/kg): 26.1 % AD and 26 % AD | urinary component, estimated % of the administered dose (% AD) ([4]; rat urine, PO dose 100 mg/kg): 0.02 % AD | % of the total radioactivity eliminated via urine within one hour ([4]; rat urine, PO dose, 1-h time point): 74.8% | % of the total urinary excretion by 6 h ([4]; rat urine, PO dose, 6 h): 6.6% | % Residual Compound 1 ([3]; 10 μM, 0 min, NADPH): 100% | % Residual Compound 1 ([3]; 10 μM, 0 min, No Cofactor): 100% | % Residual Compound 1 ([3]; 10 μM, 30 min, NADPH): 53% | % Residual Compound 1 ([3]; 10 μM, 30 min, No Cofactor): 103% | % Residual Compound 1 ([3]; 10 μM, 60 min, NADPH): 36% | % Residual Compound 1 ([3]; 10 μM, 60 min, No Cofactor): 103% | NADPH-dependent metabolism ([3]; NADPH, 60 min, 10 μM): 64%
